Experimental data published in patent US20130005730A1, “NOVEL 1,3-OXAZOLIDINE COMPOUNDS AND THEIR USE AS RENIN INHIBITORS” (priority 2009, published 2013).
Where a name gives a salt, the structure may show the parent alone.

Experiments:
[1] = In vivo bioavailability experiment: plasma aliskiren after a single i.v. or oral dose; details: male, Sprague-Dawley, rat, rats, plasma up to 24 h
Protocol: For comparison, aliskiren hemifumarate was dosed both i.v. (intravenous) and orally. For all experiment, the compounds were administrated to three individually weighted male Sprague-Dawley rats. For all po dosing, the dose was 25 μmole/kg in a dose volume of 8 ml/kg and the dose vehicle was 50% propylene glycol/50% pH 4.75 buffer (0.1M aqueous buffer of NaOAc/HOAc) by volume ratio. […] For the i.v. dosing of the compounds of invention, a vehicle of 45% PEG400/55% pH 4.75 buffer (0.1M aqueous buffer of NaOAc/HOAc) by volume ratio was used and the dose were 5 μmole/kg in a dose volume of 1.5 ml/kg. Male Sprague-Dawley rats were fasted for about 16-17 h before po dosing and fasting lasted about 2-3 h post-dose. Water was given ad libitum. The blood samples were taken at different time points up to 24 h. For i.v. dosing group, at 5 min, 15 min, 30 min, 1 h, 2 h, 4 h, 6 h, 8 h, 24 h. For oral doing group, at 15 min, 30 min, 1 h, 2 h, 4 h, […], 24 h. The blood samples were collected in heparinized tube and centrifuged at 3500 rpm for 5 min. The plasma samples were stored at about −20° C. for analysis.
After the work-up of the plasma samples, LC-MS/MS was used for the quantitation of the aliskiren and the compounds of the invention. Standard curves were made for aliskiren and the substances for study.

[2] = Chemical stability at pH 2.0; type: physicochemical; details: pH 2 aqueous buffer, 3 h incubation at 37° C., LCMS
Protocol: (§1) The compounds of the invention were studied for their chemical stability:
10 mM DMSO solution of the compound of the formula (I) was prepared. 10 μl of the solution was added to 1 ml of pH 2 aqueous buffer at 37° C. The solution was kept at 37° C. At each time point, a small aliquote was taken and the sample was analyzed by LCMS.

[3] = Chemical stability at pH 7.4; type: physicochemical; details: pH 7.4 aqueous phosphate buffer, 3 h incubation at 37° C., LCMS
Protocol: as §1
10 mM DMSO solution of the compound of the formula (I) was prepared. 10 μl of the solution was added to 1 ml of pH 7.4 aqueous phosphate buffer at 37° C. The solution was kept at 37° C. At each time points, a small aliquote was taken and the sample was analyzed by LCMS.

[4] = Clinical Pharmacokinetics, 2008, 47, 515-531; cited from earlier work
[5] = Stability of the isolated compound (observation in synthesis); type: physicochemical; details: after column chromatography, brown oil
Protocol: Chloromethyl (4S,5S)-5-((2S)-2-{[(3-amino-2,2-dimethyl-3-oxopropyl)amino]carbonyl}-3-methylbutyl)-4-{(2S)-2-[4-methoxy-3-(3-methoxypropoxy)benzyl]-3-methylbutyl}-1,3-oxazolidine-3-carboxylate (191 mg) and sodium iodide (135 mg) were mixed with dry acetonitrile and heated under stirring at 75° C. for 1 h 20 min. Full conversion according to LC-MS. Reaction mixture was mixed with water and extracted into DCM, washed with brine, dried over MgSO4. 186 mg of crude product was obtained, which was purified by column chromatography on silica gel (EtOAc) to give 72 mg of pure material as brown oil. […] LCMS: 748.3 [M+1]^+, 770.3 [M+Na]^+.

| SMILES | Chemical stability pH 2 (decomposition) [2] | Chemical stability pH 7.4 (decomposition) [3] | other results |
| --- | --- | --- | --- |
| COCCCOc1cc(C[C@@H](C[C@H](N)[C@@H](O)C[C@H](C(=O)NCC(C)(C)C(N)=O)C(C)C)C(C)C)ccc1OC [Aliskiren hemifumarate] | – | – | AUC(0-t) ([1]; iv, i.v. 5 μmole/kg): 994 ± 162 ng·h/mL; AUC(0-t) ([1]; po, p.o. 25 μmole/kg): 28 ± 20.5 ng·h/mL |
| COCCCOc1cc(C[C@@H](C[C@H](N)[C@@H](O)C[C@H](C(=O)NCC(C)(C)C(N)=O)C(C)C)C(C)C)ccc1OC [Aliskiren, (2S,4S,5S,7S)—N-(2-Carbamoyl-2-methylpropyl)-5-amino-4-hydroxy-2,7-diisopropyl-8-[4-methoxy-3-(3-methoxypropoxy)phenyl]-octanamide, reference compound] | A (Less than 5% decomposition after 3 h incubation at 37° C.) | A (Less than 5% decomposition after 3 h incubation at 37° C.) | oral bioavailability [4]: about 2.6% |
| COCCCOc1cc(C[C@@H](C[C@H]2[C@H](C[C@H](C(=O)NCC(C)(C)C(N)=O)C(C)C)OCN2C(=O)OCOC(=O)C(C)(C)C)C(C)C)ccc1OC [Example 6, (4S,5S)-pivaloyloxymethyl 5-[(S)-2-(3-amino-2,2-dimethyl-3-oxopropylcarbamoyl)-3-methylbutyl]-4-{(S)-2-[4-methoxy-3-(methoxypropoxy)benzyl]-3-methylbutyl}oxazolidine-3-carboxylate] | A (Less than 5% decomposition after 3 h incubation at 37° C.) | B (Less than 25% decomposition after 3 h incubation at 37° C.) | – |
| COCCCOc1cc(C[C@@H](C[C@H]2[C@H](C[C@H](C(=O)NCC(C)(C)C(N)=O)C(C)C)OCN2C(=O)OCOC(=O)OC(C)C)C(C)C)ccc1OC [Example 12, (4S,5S)-(isopropoxycarbonyloxy)methyl 5-[(S)-2-(3-amino-2,2-dimethyl-3-oxopropylcarbamoyl)-3-methylbutyl]-4-{(S)-2-[4-methoxy-3-(methoxypropoxy)benzyl]-3-methylbutyl}oxazolidine-3-carboxylate] | A (Less than 5% decomposition after 3 h incubation at 37° C.) | B (Less than 25% decomposition after 3 h incubation at 37° C.) | – |
| COCCCOc1cc(C[C@@H](C[C@H]2[C@H](C[C@H](C(=O)NCC(C)(C)C(N)=O)C(C)C)OCN2C(=O)OCI)C(C)C)ccc1OC [Example 14, Iodomethyl (4S,5S)-5-((2S)-2-{[(3-amino-2,2-dimethyl-3-oxopropyl)amino]carbonyl}-3-methylbutyl)-4-{(2S)-2-[4-methoxy-3-(3-methoxypropoxy)benzyl]-3-methylbutyl}-1,3-oxazolidine-3-carboxylate] | – | – | stability of the compound [5]: not stable and decomposes rather rapidly |
| COCCCOc1cc(C[C@@H](C[C@H]2[C@H](C[C@H](C(=O)NCC(C)(C)C(N)=O)C(C)C)OCN2C(=O)OCOC(=O)C(C)(C)CO)C(C)C)ccc1OC [Example 27, [(3-hydroxy-2,2-dimethylpropanoyl)oxy]methyl (4S,5S)-5-((2S)-2-{[(3-amino-2,2-dimethyl-3-oxopropyl)amino]carbonyl}-3-methylbutyl)-4-{(2S)-2-[4-methoxy-3-(3-methoxypropoxy)benzyl]-3-methylbutyl}-1,3-oxazolidine-3-carboxylate] | A (Less than 5% decomposition after 3 h incubation at 37° C.) | A (Less than 5% decomposition after 3 h incubation at 37° C.) | – |
| COCCCOc1cc(C[C@@H](C[C@H]2[C@H](C[C@H](C(=O)NCC(C)(C)C(N)=O)C(C)C)OCN2C(=O)OCOC(=O)C2COCOC2)C(C)C)ccc1OC [Example 32, [(1,3-dioxan-5-ylcarbonyl)oxy]methyl (4S,5S)-5-((2S)-2-{[(3-amino-2,2-dimethyl-3-oxopropyl)amino]carbonyl}-3-methylbutyl)-4-{(2S)-2-[4-methoxy-3-(3-methoxypropoxy)benzyl]-3-methylbutyl}-1,3-oxazolidine-3-carboxylate] | A (Less than 5% decomposition after 3 h incubation at 37° C.) | B (Less than 25% decomposition after 3 h incubation at 37° C.) | – |
| COCCCOc1cc(C[C@@H](C[C@H]2[C@H](C[C@H](C(=O)NCC(C)(C)C(N)=O)C(C)C)OCN2C(=O)OCOC(=O)OC2CCN(C)CC2)C(C)C)ccc1OC [Example 35, ({[(1-methylpiperidin-4-yl)oxy]carbonyl}oxy)methyl (4S,5S)-5-((2S)-2-{[(3-amino-2,2-dimethyl-3-oxopropyl)amino]carbonyl}-3-methylbutyl)-4-{(2S)-2-[4-methoxy-3-(3-methoxypropoxy)benzyl]-3-methylbutyl}-1,3-oxazolidine-3-carboxylate] | A (Less than 5% decomposition after 3 h incubation at 37° C.) | A (Less than 5% decomposition after 3 h incubation at 37° C.) | – |
| COCCCOc1cc(C[C@@H](C[C@H]2[C@H](C[C@H](C(=O)NCC(C)(C)C(N)=O)C(C)C)OCN2C(=O)OCOC(=O)C2(N)CC2)C(C)C)ccc1OC.O=C(O)C(F)(F)F [Example 43, {[(1-aminocyclopropyl)carbonyl]oxy}methyl (4S,5S)-5-((2S)-2-{[(3-amino-2,2-dimethyl-3-oxopropyl)amino]carbonyl}-3-methylbutyl)-4-{(2S)-2-[4-methoxy-3-(3-methoxypropoxy)benzyl]-3-methylbutyl}-1,3-oxazolidine-3-carboxylate, trifluoroacetate] | A (Less than 5% decomposition after 3 h incubation at 37° C.) | B (Less than 25% decomposition after 3 h incubation at 37° C.) | – |
| COCCCOc1cc(C[C@@H](C[C@H]2[C@H](C[C@H](C(=O)NCC(C)(C)C(N)=O)C(C)C)OCN2C(=O)OCOC(=O)c2cncn2C)C(C)C)ccc1OC [Example 44, {[(1-methyl-1H-imidazol-5-yl)carbonyl]oxy}methyl (4S,5S)-5-((2S)-2-{[(3-amino-2,2-dimethyl-3-oxopropyl)amino]carbonyl}-3-methylbutyl)-4-{(2S)-2-[4-methoxy-3-(3-methoxypropoxy)benzyl]-3-methylbutyl}-1,3-oxazolidine-3-carboxylate] | A (Less than 5% decomposition after 3 h incubation at 37° C.) | A (Less than 5% decomposition after 3 h incubation at 37° C.) | – |
| COCCCOc1cc(C[C@@H](C[C@H]2[C@H](C[C@H](C(=O)NCC(C)(C)C(N)=O)C(C)C)OCN2C(=O)OCOC(=O)C2(CN)CC2)C(C)C)ccc1OC [Example 53, {1-[({[((4S,5S)-5-((2S)-2-{[(3-amino-2,2-dimethyl-3-oxopropyl)amino]carbonyl}-3-methylbutyl)-4-{(2S)-2-[4-methoxy-3-(3-methoxypropoxy)benzyl]-3-methylbutyl}-1,3-oxazolidin-3-yl)carbonyl]oxy}methoxy)carbonyl]cyclopropyl}methanaminium trifluoroacetate] | A (Less than 5% decomposition after 3 h incubation at 37° C.) | C (Less than 50% decomposition after 3 h incubation at 37° C.) | – |
